Like-named read-outs stand apart in the source and are kept apart here.
Experiments:
[1] = system: HCT116 FOP control reporter cell line; assay: HCT116 FOP control vector reporter assay (non-functional TCF elements); format: cell-based; details: HCT116 FOP control reporter cells, luciferase expression, 36 hours incubation, 50 μM to 15 nM, read-out: HCT116 FOPFlash IC50
How it was run: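 Stable HCT116 line carrying the non-functional FOP luciferase construct, 10000 cells/well plated 24 hrs before. Compounds 50 μM to 15 nM (3.16-fold steps) in CAFTY buffer pH 7.4 with 2 mM Ca2+, 36 hours at 37° C; luciferase luminescence read.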

[2] = system: constitutive active colorectal cancer cell (CRC) Wnt pathway; assay: HCT116 Super TopFlash cellular reporter assay (constitutive active Wnt pathway); format: cell-based; details: HCT116 TOP reporter cells, luciferase expression, 36 hours incubation, 50 μM to 15 nM
How it was run: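 Luciferase luminescence served as the Wnt read-out after 36 h of compound treatment at 37 °C. Compound came from a pre-dilution series (50 μM down to 15 nM, 3.16-fold steps) in CAFTY buffer. Cells were stable HCT116 TOP reporter cells, with matched FOP-vector control cells tested in parallel, seeded a day earlier.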

IC50 ([1]; Homo sapiens, HCT-116, 36 h) | IC50 ([2]; Homo sapiens, HCT-116, 36 h) | IC50 [1] | IC50 [2] | Structure (SMILES)
≥ 50 µM | 0.302 µM |  |  | O=C(CN1C[C@H]2C[C@@H]1CO2)Nc1cc(C(=O)Nc2ccc(-c3ccccc3)cc2)ccc1OC1CC1 [Example 181, N-(biphenyl-4-yl)-4-(cyclopropyloxy)-3-{[(1R,4R)-2-oxa-5-azabicyclo[2.2.1]hept-5-ylacetyl]amino}benzamide]
≥ 50 µM | 0.344 µM |  |  | O=C(CN1CCOCC1)Nc1cc(NC(=O)c2ccc(-c3ccccc3)cc2)ccc1C(F)(F)F [Example 183, N-{3-[(morpholin-4-ylacetyl)amino]-4-(trifluoromethyl)phenyl} biphenyl-4-carboxamide]
≥ 50 µM | 0.346 µM |  |  | O=C(CN1CCOCC1)Nc1cc(C(=O)Nc2ccc(-c3ccccc3)cc2)ccc1OC(F)F [Example 184, N-(biphenyl-4-yl)-4-(difluoromethoxy)-3-[(morpholin-4-ylacetyl)amino]benzamide]
≥ 50 µM | 0.374 µM |  |  | COc1ccc(NC(=O)c2ccc(-c3ccccc3)cc2)cc1NC(=O)C1(N2CCN(C3CC3)CC2)CC1 [Example 185, N-[3-({[l-(4-cyclopropylpiperazin-1-yl)cyclopropyl]carbonyl}amino}-4-melhoxyphenyl)biphenyl-4-carboxamide]
≥ 50 µM | 0.385 µM |  |  | COC1CN(CC(=O)Nc2cc(C(=O)Nc3ccc(-c4ccccc4)cc3)ccc2OC2CC2)C1 [Example 186, N-(biphenyl-4-yl)-4-(cyclopropyloxy)-3-{[(3-methoxyazetidin-1-yl)acetyl]amino}benzamide]
≥ 50 µM | 0.423 µM |  |  | COCc1ccc(C(=O)Nc2ccc(-c3ccccc3)cc2)cc1NC(=O)Cn1cccn1 [Example 187, N-(biphenyl-4-yl)-4-(methoxymethyl)-3-[(1H-pyrazol-1-ylacetyl)amino]benzamide]
33 µM | 0.456 µM |  |  | CN(C)C1(C(=O)Nc2cc(NC(=O)c3ccc(-c4ccccc4)cc3)ccc2OC(F)(F)F)CC1 [Example 188, N-[3-({[1-(dimethylamino)cyclopropyl]carbonyl}amino)-4-(trifluoromethoxy)phenyl] biphenyl-4-carboxamide]
≥ 50 µM | 0.479 µM |  |  | COc1ccc(NC(=O)c2ccc(-c3ccccc3)cc2)cc1NC(=O)C1(N(C)C)CC1 [Example 189, N-[3-({[1-(dimethylamino)cyclopropyl]carbonyl}amino)-4-methoxyphenyl]biphenyl-4-carboxamide]
≥ 50 µM | 0.568 µM |  |  | O=C(CN1C[C@H]2C[C@@H]1CO2)Nc1cc(C(=O)Nc2ccc(-c3ccccc3)cc2)ccc1C(F)(F)F [Example 190, N-(biphenyl-4-yl)-3-{[(1R,4R)-2-oxa-5-azabicyclo[2.2.1]hept-5-ylacetyl]amino}-4-(trifluoromethyl)benzamide]
12 µM | 0.715 µM |  |  | O=C(CN1CCOCC1)Nc1cc(C(=O)Nc2ccc(-c3ccccc3)cc2)ccc1C(=O)NCCN1CCCC1 [Example 191, N4-(biphenyl-4-yl)-2-[(morpholin-4-ylacetyl)amino]-N1-[2-(pyrrolidin-1-yl)ethyl]terephthalamide]
≥ 50 µM | 0.785 µM |  |  | O=C(CN1C[C@@H]2C[C@H]1CO2)Nc1cc(C(=O)Nc2ccc(-c3ccccc3)cc2)ccc1OC1CC1 [Example 192, N-(biphenyl-4-yl)-4-(cyclopropyloxy)-3-{[(1S,4S)-2-oxa-S-azabicyclo[2.2.1]hept-5-ylacetyl]amino}benzamide]
17 µM | 0.81 µM |  |  | COCCOCc1ccc(C(=O)Nc2ccc(-c3ccccc3)cc2)cc1NC(=O)CN1CC2CCC(C1)O2 [Example 193, N-(biphenyl-4-yl)-4-[(2-methoxyethoxy)methyl]-3-[(8-oxa-3-azabicyclo[3.2.1]oct-3-ylacetyl)amino]benzamide]
≥ 50 µM | 0.864 µM |  |  | Cc1noc(-c2ccc(C(=O)Nc3ccc(-c4ccccc4)cc3)cc2NC(=O)CN2CCOCC2)n1 [Example 194, N-(biphenyl-4-yl)-4-(3-methyl-1,2,4-oxadiazol-5-yl)-3-[(morpholin-4-ylacetyl)amino]benzamide]
39 µM | 0.975 µM |  |  | COc1ccc(NC(=O)c2ccc(-c3ccc(O)cc3)cc2)cc1NC(=O)CN1CCOCC1 [Example 195, 4′-hydroxy-N-{4-methoxy-3-[(morpholin-4-ylacetyl)amino)phenyl} biphenyl-4-carboxamide]
13 µM | 1.17 µM |  |  | COc1ccc(NC(=O)c2ccc(-c3cc(F)cc(F)c3)cc2F)cc1NC(=O)CN1CCOCC1 [Example 196, 3,3′,5′-trifluoro-N-{4-methoxy-3-[(morpholin-4-ylacetyl)amino]phenyl} biphenyl-4-carboxamide]
 |  | ≥ 50 µM | 1.48 µM | CC(C(=O)Nc1cc(NC(=O)c2ccc(-c3ccccc3)cc2)ccc1C(F)(F)F)N1CC2CCC(C1)O2 (stereo not drawn) [Example 197, N-[3-{[(2S*)-2-(8-oxa-3-azabicydo[3.2.1]oct-3-yl)propanoyl]amino}-4-(trifluoromethyl)phenyl) biphenyl-4-carboxamide]
≥ 50 µM | 1.5 µM |  |  | COc1ccc(NC(=O)c2ccc(-c3ccc(N(C)C)cc3)cc2)cc1NC(=O)CN1CCOCC1 [Example 198, 4′-(dimethylamino)-N-{4-methoxy-3-[(morpholin-4-ylacetyl)amino]phenyl} biphenyl-4-carboxamide]
≥ 50 µM | 1.75 µM |  |  | COc1ccc(NC(=O)c2ccc(-c3cc(F)cc(F)c3)cc2)cc1NC(=O)CN1CCOCC1 [Example 199, 3′,5′-difluoro-N-{4-methoxy-3-[(morpholin-4-ylacetyl)amino]phenyl} biphenyl-4-carboxamide]
≥ 50 µM | 1.75 µM |  |  | COCCc1noc(-c2ccc(C(=O)Nc3ccc(-c4ccccc4)cc3)cc2NC(=O)CN2CCOCC2)n1 [Example 200, N-(biphenyl-4-yl)-4-[3-(2-methoxyethyl)-1,2,4-oxadiazol-5-yl]-3-[(morpholin-4-ylacetyl)amino]benzamide]
≥ 50 µM | 1.9 µM |  |  | COc1ccc(C(=O)Nc2ccc(-c3ccccc3)cc2)cc1NC(=O)CN1C[C@H]2C[C@@H]1CO2 [Example 201, N-(biphenyl-4-yl)-4-methoxy-3-{[(1R,4R)-2-oxa-5-azabicyclo[2.2.1]hept-5-ylacetyl)amino}benzamide]
≥ 50 µM | 1.9 µM |  |  | COc1ccc(C(=O)Nc2ccc(-c3ccccc3)cc2)cc1NC(=O)CN1CCC(OC)C1 (stereo not drawn) [Example 202, N-(biphenyl-4-yl)-4-methoxy-3-{[(3-methoxypyrrolidin-1-yl)acetyl]amino}benzamide]
≥ 50 µM | 2.02 µM |  |  | COc1ccc(NC(=O)c2ccc(-c3ccccc3)c(F)c2)cc1NC(=O)CN1CCOCC1 [Example 203, 2-fluoro-N-{4-methoxy-3-[(morpholin-4-ylacetyl)amino]phenyl} biphenyl-4-carboxamide]
≥ 50 µM | 2.25 µM |  |  | O=C(CN1CCOCC1)Nc1cc(C(=O)Nc2ccc(-c3ccccc3)cc2)ccc1CO [Example 204, N-(biphenyl-4-yl)-4-(hydroxymethyl)-3-[(morpholin-4-ylacetyl)amino]benzamide]
≥ 50 µM | 2.45 µM |  |  | COc1ccc(NC(=O)c2ccc(-c3ccccc3)cc2)cc1NC(=O)CN1C[C@H]2C[C@@H]1CO2 [Example 205, N-(4-methoxy-3-{[(1R,4R)-2-oxa-5-azabicyclo[2.2.1]hept-5-ylacetyl]amino}phenyl) biphenyl-4-carboxamide]

Reference: patent US20160052898A1, “NOVEL COMPOUNDS” (BAYER PHARMA AKTIENGESELLSCHAFT, priority 2013, published 2016)
